In the oligonucleotide strings, read from the 5' end, every base follows the letter of its sugar. An asterisk marks phosphorothioate; unmarked linkages are phosphodiester. Other units and linkages are bracketed, terminal groups are in braces. A string of capitals states the bases alone. e = 2'-O-(2-methoxyethyl) (MOE); [5mC] = 5-methylcytosine
Tested on: mir-143 binding sites
Test: pGL3-mir-143 sensor luciferase assay in HeLa cells
Format: cell-based, human
Details: for Relative luciferase activity / luciferase expression (% lucif. only control): HeLa cells; for Relative luciferase activity: pGL3-mir-143 sensor with pCR3-pri-mir-143 (430); for luciferase expression (% lucif. only control): pGL3-mir-143 sensor
Excerpt: In one embodiment, an expression system based on the pGL3-Control (Promega Corp., Madison Wis.) vector containing a CMV promoter controlling expression of a luciferase reporter sequence was used in transient transfections of HeLa cells with plasmids expressing miRNA or pri-miRNA mimics. To assess the ability of miRNA mimics to bind and regulate the expression of the luciferase reporter gene, two reporter plasmids were constructed: 1) a synthetic DNA fragment comprising two sites perfectly complementary to mir-143 were inserted into the pGL3-Control luciferase reporter vector, to create the pGL3-mir-143 sensor plasmid, and 2) a DNA fragment comprising the 3′-UTR of the LIM domain only 4 (LMO4) gene (predicted to be regulated by mir-143) was inserted into pGL3-Control to create pGL3-LMO4; this fragment was PCR-amplified using a primer beginning at position 1261 of the LMO4 sequence (GenBank Accession NM_006769.2, incorporated herein as SEQ ID: 809) and the downstream primer hybridizing to the poly-A tail. In each of these plasmids, the target site was placed downstream of the luciferase coding sequence and upstream of the polyadenylation signal in the 3′-UTR of the luciferase reporter vector. The unmodified pGL3-Control luciferase reporter vector was used as a control.
HeLa cells were routinely cultured and passaged as described, and on the day before transfection with expression or reporter plasmids, the HeLa cells were seeded onto 24-well plates 50,000 cells/well. Cells were transfected according to standard published procedures with various combinations of plasmids using 2 μg Lipofectamine™ 2000 Reagent (Invitrogen) per μg of plasmid DNA, or, when transfecting oligomeric compounds, 1.25 μg of Lipofectamine™ 2000 Reagent per 100 nM oligonucleotide or double-stranded RNA. The luciferase signal in each well was normalized to the Renilla luciferase (RL) activity produced from a co-transfected plasmid, pRL-CMV, which was transfected at 0.5 μg per well. Cells were treated at various dosages (4 nM, 20 nM, and 100 nM) with the following oligomeric compound mimics: 1) “ds-mir-143,” 2) “ds-Control,” 3) “pCR3-pri-mir-143,” or 4) “pri-mir-control,” as described supra. In accordance with methods described in Example 12, supra, a luciferase assay was performed 48-hours after transfection. Briefly, cells were lysed in passive lysis buffer (PLB; Promega), and 20 ul of the lysate was then assayed for RL activity using a Dual Luciferase Assay kit (Promega) according to the manufacturer's protocol. The results below are an average of three trials and are presented as percent pGL3-Control luciferase expression normalized to pRL-CMV expression (RL).
In another embodiment, HeLa cells were transfected with 0.03 μg pGL3-mir-143 sensor plasmid and 0.01 μg pRL-CMV plasmid, and, in addition, (except those samples described below as “without mir-143 pri-miRNA,”) were also transfected with 0.01 μg of an expression plasmid designed to express a mir-143 pri-miRNA mimic comprising a larger 430-nt fragment of the mir-143 primary miRNA transcript, referred to as “pCR3-pri-mir-143 (430)” ([…]; SEQ ID NO: 871). […] To further evaluate the ability of the mir-143 pri-miRNA mimic to inhibit luciferase activity from the sensor plasmid, and to assess the ability of oligomeric compounds to interfere with the inhibition of pGL3-mir-143 sensor luciferase expression by the mir-143 pri-miRNA mimic, pGL3-mir-143 sensor-expressing HeLa cells treated with pCR3-pri-mir-143 (430) were additionally treated with varying concentrations (0-, 6.7- or 20 nM) of the following oligomeric compounds: 1) ISIS Number 327901 (SEQ ID NO: 319), a uniform 2′-MOE oligomeric compound targeting mir-143; 2) ISIS Number 342673 (SEQ ID NO: 758), a uniform 2′-MOE scrambled control; or 3) ISIS Number 327924 (SEQ ID NO: 342) targeting an unrelated miRNA (mir-129-2). […]

Substance	Relative luciferase activity (6.7 nM)	Relative luciferase activity (20 nM)	luciferase activity from the pGL3-mir-143 sensor plasmid (HeLa, 4 nM, 20 nM and 100 nM, 48 hours)	luciferase expression (% lucif. only control) (4 nM, 48 hours)	luciferase expression (% lucif. only control) (20 nM, 48 hours)	luciferase expression (% lucif. only control) (100 nM, 48 hours)
327924 (antisense eG*e[5mC]*eA*eA*eG*e[5mC]*e[5mC]*e[5mC]*eA*eG*eA*e[5mC]*e[5mC]*eG*e[5mC]*eA*eA*eA*eA*eA*eG) [compound 327924]	0.8	1.2	–	–	–	–
ds-mir-143: double-stranded RNA of ISIS 342199 hybridized to its perfect complement ISIS 342200 (sense UGAGAUGAAGCACUGUAGCUCA; antisense UGAGCUACAGUGCUUCAUCUCA; RNA, backbone not given here)	–	–	inhibited luciferase activity from the pGL3-mir-143 sensor plasmid in a dose-dependent manner	14.5 % lucif. only control	8.0 % lucif. only control	7.1 % lucif. only control
